This assay relates to antibodies directed to the CH47 region of the P1/P2 ribosomal protein. The assay can be described thus: Hormone added to sera of immunized female mice, antibody signal for the CH47 peptide. The assay is classed as binding. To be noted: overall. The method, then:
In a second series of experiments, Testosterone (0 ng/mL, 0.5 ng/mL, 1 ng/mL, 2 ng/mL, and 4 ng/mL) or Progesterone (0 ng/mL, 2 ng/mL, 4 ng/mL, 8 ng/mL, and 14 ng/mL) was added to the sera of female mice immunized with a variety of different Chagas peptides (Formulation 1 or 2) that either include (B) or excluded (A) specifically peptide CH47. […] At low hormone concentrations there was an increase in the antibody signal with a subsequent decrease as the concentration of hormone further increased.

Structures are written as SMILES.

Regarding `CC(=O)[C@H]1CC[C@H]2[C@@H]3CCC4=CC(=O)CC[C@]4(C)[C@H]3CC[C@]12C` [Progesterone, pregn-4-ene-3,20-dione], the “decrease in the IgG response” value (hormone 0-14 ng/mL) amounted to 26.2%.
For the molecule `C[C@]12CC[C@H]3[C@@H](CCC4=CC(=O)CC[C@@]43C)[C@@H]1CC[C@@H]2O` [Testosterone], the “decrease in the antibody response” value (hormone 0-4 ng/mL) stood at 24.4%.

The values are drawn from patent US20160008376A1, “Compositions, Methods and Uses for Treating Gender-Biased Immune Disorders” (Biocopea Limited, priority 2014, published 2016).
